Source: patent EP1503771B1, “SEDATIVE MATERIALS AND TREATMENTS” (University of Strathclyde, priority 2002, dated 2003)
Marks after values point to notes of the source that are not given here.

Key:
[1] = tested on: BDZ-bs (benzodiazepine binding site in GABAA brain receptor); test: BDZ-bs binding assay ([3H]-FNZ binding to cerebral cortical membranes); parameters: species or system rat
Method: In vitro binding assays were carried out with various receptors as well as in vivo tests for sedative activity on the various fractions A-K recovered in Example 1 using the known procedures described in detail in the literature for the following receptors: BDZ-bs (benzodiazepine binding site in GABAA brain receptor) (1); 5-hydroxytriptamine-type 1A (5HT1A) (2); 5HT2 (3); AMPA glutamatergic (4); adenosine 1 (5) . In vivo sedation activity was measured by the Hole-board test (6).
The presence of BDZ-bs ligands in the fractions obtained at the end of the preparative fractionation scheme described in Figure 2 was checked by the BDZ-bs binding assay as described in Example 2.
No BDZ-bs ligands were found in the eluates obtained with 20 %, 30 % and 80 % ACN, but they were present in those obtained with 40 % and 50 % ACN. The BDZ-bs ligands distribution obtained is shown in Figure 3 in which the percentage of binding inhibition of [^3H]-FNZ to rat cerebral cortical membranes (averages of duplicated measurements), is shown for 0.05 mL aliquots of the indicated fractions. (Note: Fractions 1-5, 6-10 and 28-32 were collected in bulk; 40 % and 50 % eluates were collected as separate 100 mL fractions. The arrows inside the graph indicate the pools made). […]

[2] = tested on: male Swiss mice; test: Hole-board test (sedation); type: in vivo; conditions: for Hole-board test N° of Head- dips / Hole-board test N° of rearings / Hole-board test Time head dipping: mice
[3] = tested on: male Swiss mice; test: spontaneous locomotor activity (Opto-Varimex apparatus); type: in vivo; conditions: for Locomotor Total activity: ambulatory locomotor activity; for Locomotor Activity Total / Locomotor Activity ambulatory: 4 mg/kg, decrement relative to vehicle values
Method: (§1) In all in vivo tests male Swiss mice of 28-30 g were used. The animals were injected i.p. with vehicle, or a solution of the drug, or fraction, 20 min before the assay. The assays were performed in mice i.p. injected with an amount of each fraction equivalent to that obtained from 1 g of dry Valeriana wallichii powder (see Table 3), 20 min before the test. In the case of the remaining aqueous solution (see Figure 2) it was injected at the maximum tolerated dose which was equivalent to that obtained from only 12 mg of dry Valeriana wallichii powder. This low dosage explains the absence of activity recorded in Table 4.
(§2) The following tests were used: spontaneous ambulatory activity counts in an Opto-Varimex apparatus that optically detects and measures locomotor activity; the Hole-board, a well-known test to assay for the sedative behavior (6); and the horizontal wire test to detect myorelaxation as described in detail in the literature (7).
(§3) Mean ±SEM of locomotor activity registered during 5 min session in an Opto-Varimex apparatus and performance of mice in the holeboard test. Wire test was performed after two trials and was registered the number of animals grasped the wire for 3 seconds. Vehicle or 6-methylapigenin were ip administered 20 min before tests. No significant differences were observed using the Student's t test at p>0.05. Table 9 - Anxiolytic effect of 6-methylapigenin measured in the plus-maze test

[4] = tested on: male Swiss mice; test: horizontal wire test (myorelaxation); type: in vivo
Method: as §1, §2, §3

[5] = tested on: mice; test: sodium thiopental-induced sleeping time; type: in vivo
Method: The effect of the active components in fraction H of Table 3 (ACN 50%, 23-27) and that of the aqueous remaining solution (Table 3) were tested in mice by i.p. administration. The doses were 2 mg per mouse for fraction H and 5 mg per mouse for the aqueous remaining solution fraction B. A small amount of conventional anesthetic (30 mg/kg of thiopental sodium - Biochemie, GmbH, Kundl, Austria) was used to induce a slight sleeping condition in the mice which were monitored to detect any possible enhancement of the sleeping condition by the previous injection of the novel compounds.
Median (interquartile range) of sleeping time of mice given a sodium thiopental i.p. administration (30 mg/kg) 20 min after an i.p. injection of vehicle or 6-methylapigenin. The sleeping time was measured as the time spent between disappearance and reappearance of righting reflex. Table 8 - Effect in different behavioral tests of 6-methylapigenin (sedation tests)

[6] = tested on: mice; test: elevated plus-maze test (anxiolysis); type: in vivo; conditions: for % open arm entries / % time spent in open arms / arm entries: mice, mean ±SEM
Description: Anti-anxiety as discussed in the present application is based on the fear that mice have for open spaces i.e. the elevated plus-maze assay.

[7] = tested on: BDZ-bs; test: GABA-shift of [3H]-FNZ displacement curves; type: binding; conditions: for GABA-shift: [3H]-FNZ binding to cortical brain membranes in the presence or absence of 100 µM GABA, n= 3
[8] = 10 mg/kg ip 20 min before test, mean ±SEM
[9] = 10 mg/kg ip 20 min before test, 5 min session, mean ±SEM
[10] = 0.3 mg/kg ip 20 min before test
[11] = mice, 1 mg/kg i.p. 20 min before sodium thiopental 30mg/kg i.p. (Table 20)
[12] = 4 mg/kg, decrement relative to vehicle values
[13] = mice, 4 mg/kg i.p. 20 min before sodium thiopental 30 mg/kg i.p. (Table 10)
[14] = mice, 9 mg/kg i.p. 20 min before sodium thiopental 30 mg/kg i.p. (Table 10)
[15] = mice, hesperidin 2 mg/kg i.p. 20 min before sodium thiopental 30mg/kg i.p. (Table 20)

Structure (SMILES): Cc1c(O)cc2oc(-c3ccc(O)cc3)cc(=O)c2c1O (single isomer, unassigned) [6-methylapigenin]
- Scatchard analysis of saturation curves: type of interaction ([1]; [3H] FNZ saturation curves, decline in apparent affinity without changes in Bmax): competitive interaction
- Ki ([1]; n= 5 (ligand 1), n= 3 (ligand 2)): 500 ± 170 nM
- Hole-board test N° of Head- dips [2, 8]: 7±0.5
- Hole-board test N° of rearings [2, 8]: 28±3
- Hole-board test Time head dipping [2, 8]: 10±1
- sedative effects ([2]; up to 10 mg/kg in mice): does not have sedative effects
- Locomotor Total activity ([3]; 0.3 mg/kg ip 20 min before test, 5 min session, mean ±SEM): 410±36
- Locomotor Total activity ([3]; 1 mg/kg ip 20 min before test, 5 min session, mean ±SEM): 463±64
- Ambulatory locomotor activity [3, 9]: 395±43
- Total Locomotor Activity [3, 9]: 552±55
- Wire ([4]; 10 mg/kg ip, number of animals that grasped the wire for 3 seconds): 5/5
- Sleeping time Median ([5]; mice, 6-methylapigenin 1mg/kg (Table 18)): 0 min
- Sleeping time Median ([5]; mice, 6-methylapigenin 1 mg/kg i.p. 20 min before sodium thiopental 30 mg/kg i.p. (Table 12)): 0 min
- Sleeping time (min) median values ([5]; mice, i.p., 1 mg/kg, 20 min before sodium thiopental 30 mg/kg i.p. (Table 7)): 0 min
- effect on sleeping time ([5]; up to 1 mg/kg, mice receiving a sub-hypnotic dose of thiopental): does not affect the sleeping time
- anxiolytic properties in the plus-maze assay ([6]; dose of 1 mg/kg in mice): clear anxiolytic properties
- % open arm entries [6, 10]: 48±4%
- % time spent in open arms [6, 10]: 42±4%
- arm entries [6, 10]: 17±2
- % open arm entries ([6]; 1 mg/kg ip 20 min before test): 60±6 %
- % time spent in open arms ([6]; 1 mg/kg ip 20 min before test): 58±5 %
- arm entries ([6]; 1 mg/kg ip 20 min before test): 14±2
- GABA-shift [7]: 1.6-2.0
- behaviour at the BDZ-bs from GABA-shift ([7]; presence or absence of 100 µM GABA): behaves as an agonist

Structure (SMILES): O=c1cc(-c2ccc(O)cc2)oc2cc(O)cc(O)c12 [Apigenin, reference compound]
- Sleeping time Median [5, 11]: 0 min
- Sleeping time Median (min) ([5]; mice, 1 mg/kg i.p. 20 min before sodium thiopental 30mg/kg i.p. (Table 20), listed as apigenin): do not produce any sleeping time

Structure (SMILES): O=c1cc(-c2ccccc2)oc2cc(O)cc(O)c12 [Chrysin, reference compound]
- Sleeping time Median [5, 11]: 0 min

Structure (SMILES): COc1ccc([C@@H]2CC(=O)c3c(O)cc(O[C@@H]4O[C@H](CO[C@@H]5O[C@@H](C)[C@H](O)[C@@H](O)[C@H]5O)[C@@H](O)[C@H](O)[C@H]4O)cc3O2)cc1O [Citrus hesperidin, hesperidin, reference compound]
- Hole-board test N° of Head- dips [2, 12]: -40 percentage
- Hole-board test N° of rearings [2, 12]: -22 percentage
- Hole-board test Time head dipping [2, 12]: -44 percentage
- Locomotor Activity Total [3]: -31 percentage
- Locomotor Activity ambulatory [3]: -30 percentage
- Wire ([4]; 4 mg/kg): 0 percentage
- activity relative to the natural isomer from valeriana ([5]; estimated from Table 10, sleeping time in mice): approximately 60%
- Sleeping time Median (s) [5, 13]: 660* s
- Sleeping time Median (s) [5, 14]: 1440** s

Structure (SMILES): COc1ccc([C@@H]2CC(=O)c3c(O)cc(O[C@@H]4O[C@H](CO[C@@H]5O[C@@H](C)[C@H](O)[C@@H](O)[C@H]5O)[C@@H](O)[C@H](O)[C@H]4O)cc3O2)cc1O [Hesperidin]
- Sleeping time Median ([5]; mice, 4 mg/kg (Table 13)): 20 min
- Sleeping time Median [5, 15]: 3.5 min
- Sleeping time Median (min) [5, 15]: 3.5* min

Structure (SMILES): COc1ccc(-c2cc(=O)c3c(O)cc(O[C@@H]4O[C@H](CO[C@@H]5O[C@@H](C)[C@H](O)[C@@H](O)[C@H]5O)[C@@H](O)[C@H](O)[C@H]4O)cc3o2)cc1 [Linarin, 7-[[6-O-(6-deoxy-α-L-mannopyranosyl)-β-D-glucopyranosyl]oxy]-5-hydroxy-2-(4-methoxyphenyl)-4H-benzopyran-4-one]
- dose at which hypnotic activity is evident ([5]; estimated from Table 16): 7 mg/kg
- Sleeping time Median ([5]; mice, 4 mg/kg i.p. 20 min before sodium thiopental 30 mg/kg i.p. (Table 16)): 0 min
- Sleeping time Median (min) ([5]; mice, 7 mg/kg i.p. 20 min before sodium thiopental 30 mg/kg i.p. (Table 16)): 30** min
- Sleeping time Median (min) ([5]; mice, 14 mg/kg i.p. 20 min before sodium thiopental 30 mg/kg i.p. (Table 16)): 30** min
- Sleeping time Median ([5]; mice, linarin 4 mg/kg i.p. 20 min before sodium thiopental 30 mg/kg i.p. (Table 17)): 0 min

Structure (SMILES): CC1=C2[C@H](/C=C(\C)C(=O)O)CC[C@@H](C)[C@H]2CC1 [Valerenic acid, reference compound]
- Sleeping time Median ([5]; mice, valerenic acid 5 mg/kg (Table 18)): 0 min
- Sleeping time Median ([5]; mice, valerenic acid 5 mg/kg i.p. 20 min before sodium thiopental 30 mg/kg i.p. (Table 17)): 0 min
- Sleeping time Median ([5]; mice, valerenic acid 15mg/kg i.p. 20 min before sodium thiopental 30 mg/kg i.p. (Table 17)): 0 min

Structure (SMILES): COc1ccc([C@@H]2CC(=O)c3c(O)cc(O[C@@H]4O[C@H](CO[C@@H]5O[C@@H](C)[C@H](O)[C@@H](O)[C@H]5O)[C@@H](O)[C@H](O)[C@H]4O)cc3O2)cc1O [Valeriana hesperidin, Hesperetin 7-rhamnoglucoside; 4H-1-Benzopyran-4-one, 7-[[6-O-(6-deoxy-alpha-L-mannopyranosyl)-beta-D-glucopyranosyl]oxy]-2,3-dihydro-5-hydroxy-2-(3-hydroxy-4-methoxyphenyl)-, (S)-]
- Hole-board test N° of Head- dips [2, 12]: -74** percentage
- Hole-board test N° of rearings [2, 12]: -58** percentage
- Hole-board test Time head dipping [2, 12]: -81## percentage
- Locomotor Activity Total [3]: -55** percentage
- Locomotor Activity ambulatory [3]: -58** percentage
- Wire ([4]; 4 mg/kg): 0 percentage
- Sleeping time Median ([5]; mice, 1 mg/kg i.p. 20 min before sodium thiopental 30 mg/kg i.p. (Table 10)): 0.583 min
- Sleeping time Median (s) ([5]; mice, 2 mg/kg i.p. 20 min before sodium thiopental 30 mg/kg i.p. (Table 10)): 197* s
- Sleeping time Median (s) [5, 13]: 1290** s
- Sleeping time Median (s) [5, 14]: 1800** s
- Sleeping time Median (s) ([5]; mice, hesperidin 2 mg/kg i.p. 20 min before sodium thiopental 30 mg/kg i.p. (Table 12)): 179* s
- Sleeping time Median (s) ([5]; mice, i.p., Dose 3 (unit not given), 20 min before sodium thiopental 30 mg/kg i.p.): 500** s

Structure (SMILES): CN1C(=O)CN=C(c2ccccc2)c2cc(Cl)ccc21 [diazepam, reference compound]
- GABA-shift [7]: 2.00 ± 0.10
